Experimental data: ChEMBL document CHEMBL4229507, “Identification of influenza PA-Nter endonuclease inhibitors using pharmacophore- and docking-based virtual screening” (Bioorg Med Chem, 2018)

Legend:
[1] = molecular target: Polymerase acidic protein (Influenza A virus (strain A/X-31 H3N2), UniProt Q9IQ47); test: (§1) Inhibition of recombinant Influenza A virus (A/X-31(H3N2)) N-terminal 6xHis-tagged PA-Nter (1 to 217 residues) expressed in Escherichia coli BL21-CodonPlus cells using M13mp18 as substrate after 1 hr by ethidium bromide staining-based agarose gel electrophoresis
[2] = molecular target: Polymerase acidic protein (Influenza A virus (strain A/X-31 H3N2)) (UniProt Q9IQ47); test: as §1
Influenza A virus = test: Antiviral activity against Influenza A virus (A/Puerto Rico/8/1934(H1N1)) infected in MDCK cells after 24 hrs by immunofocus assay; format: functional, organism-based
[3] = test system: unidentified influenza virus; test: Antiviral activity against Influenza virus assessed as inhibition of viral transcription

O=C(CCN1CCC(Cc2ccc(F)cc2)CC1)c1c[nH]c2cc(O)c(O)cc12
IC50 [1]: 243 µM

O=C(O)C(=O)CC(=O)c1ccccc1
IC50 [1]: 3.2 µM

O=C(C(=O)N1CCC(Cc2ccccc2)CC1)c1c[nH]c2cc(O)c(O)cc12
IC50 [1]: 266 µM

NS(=O)(=O)c1ccc(C(=O)NCCc2ccc(O)c(O)c2)cc1
inhibition [2]: Dose-dependent effect | IC50 [1]: 12 µM

O=c1[nH]c(-c2ccc(F)cc2)c(-c2ccc(-c3nnn[nH]3)cc2)cc1O
EC50 (Influenza A virus): 11.4 µM

O=C(O)/C(O)=C/C(=O)C1(Cc2ccc(Cl)cc2)CCN(Cc2ccccc2)CC1
IC50 [3]: 0.43 µM
